Counter-ions that a name gives are not always drawn. Like-named read-outs stand apart in the source and are kept apart here.
Assays:
[1] = system: Pancreatic Ductal Adenocarcinoma #03 (Panc 03); test: Murine antitumor activity versus Pancreatic Ductal Adenocarcinoma #03; assay type: in vivo; conditions: versus Panc 03; for LTC (long term cures): mice with no palpable tumor after a minimum of 86 days/total number in treatment group; for % T/C (tumor growth inhibition): intravenous, T/C <42% considered significant
From the text: (§1) Murine Antitumor Activaty Versus Pancreatic Ductal Adenocarcinoma #03.
(§2) This is tumor growth inhibition, where T is the medium tumor burden in the treatment group times 100 at evaluation and C is the medium tumor burden in the control group at evaluation.
(§3) This is the maximum tolerated total dose administered intravenously in mg/kg.
(§4) This means the long term cures, the number of mice in the treatment group with no palpable tumor evidents after a minimum of 86 days/total number in treatment group. […]

[2] = as above; assay type: in vivo; conditions: mouse, in vivo, iv; administered intravenously, total dose; mice, Panc 03 study; read-out: MTD (maximum tolerated total dose)
From the text: as §1, §2, §3, §4

calf thymus DNA = test: DNA intercalation: ethidium bromide displacement assay; assay type: binding; conditions: displacement of 50% of calf thymus DNA bound ethidium bromide; average of two determinations
From the text: A known ethidium bromide displacement assay is used to determine intercalation potency.

HeLa cell topo II = HeLa cell topo II (Homo sapiens, UniProt P11388); test: Topoisomerase II inhibition: promotion of covalent complex formation between pBR322 DNA and topo II (SDS/K+ precipitation); assay type: biochemical; conditions: read-out: topo II inhib EC50
HeLa cell topo II, sequence (P11388 whole entry): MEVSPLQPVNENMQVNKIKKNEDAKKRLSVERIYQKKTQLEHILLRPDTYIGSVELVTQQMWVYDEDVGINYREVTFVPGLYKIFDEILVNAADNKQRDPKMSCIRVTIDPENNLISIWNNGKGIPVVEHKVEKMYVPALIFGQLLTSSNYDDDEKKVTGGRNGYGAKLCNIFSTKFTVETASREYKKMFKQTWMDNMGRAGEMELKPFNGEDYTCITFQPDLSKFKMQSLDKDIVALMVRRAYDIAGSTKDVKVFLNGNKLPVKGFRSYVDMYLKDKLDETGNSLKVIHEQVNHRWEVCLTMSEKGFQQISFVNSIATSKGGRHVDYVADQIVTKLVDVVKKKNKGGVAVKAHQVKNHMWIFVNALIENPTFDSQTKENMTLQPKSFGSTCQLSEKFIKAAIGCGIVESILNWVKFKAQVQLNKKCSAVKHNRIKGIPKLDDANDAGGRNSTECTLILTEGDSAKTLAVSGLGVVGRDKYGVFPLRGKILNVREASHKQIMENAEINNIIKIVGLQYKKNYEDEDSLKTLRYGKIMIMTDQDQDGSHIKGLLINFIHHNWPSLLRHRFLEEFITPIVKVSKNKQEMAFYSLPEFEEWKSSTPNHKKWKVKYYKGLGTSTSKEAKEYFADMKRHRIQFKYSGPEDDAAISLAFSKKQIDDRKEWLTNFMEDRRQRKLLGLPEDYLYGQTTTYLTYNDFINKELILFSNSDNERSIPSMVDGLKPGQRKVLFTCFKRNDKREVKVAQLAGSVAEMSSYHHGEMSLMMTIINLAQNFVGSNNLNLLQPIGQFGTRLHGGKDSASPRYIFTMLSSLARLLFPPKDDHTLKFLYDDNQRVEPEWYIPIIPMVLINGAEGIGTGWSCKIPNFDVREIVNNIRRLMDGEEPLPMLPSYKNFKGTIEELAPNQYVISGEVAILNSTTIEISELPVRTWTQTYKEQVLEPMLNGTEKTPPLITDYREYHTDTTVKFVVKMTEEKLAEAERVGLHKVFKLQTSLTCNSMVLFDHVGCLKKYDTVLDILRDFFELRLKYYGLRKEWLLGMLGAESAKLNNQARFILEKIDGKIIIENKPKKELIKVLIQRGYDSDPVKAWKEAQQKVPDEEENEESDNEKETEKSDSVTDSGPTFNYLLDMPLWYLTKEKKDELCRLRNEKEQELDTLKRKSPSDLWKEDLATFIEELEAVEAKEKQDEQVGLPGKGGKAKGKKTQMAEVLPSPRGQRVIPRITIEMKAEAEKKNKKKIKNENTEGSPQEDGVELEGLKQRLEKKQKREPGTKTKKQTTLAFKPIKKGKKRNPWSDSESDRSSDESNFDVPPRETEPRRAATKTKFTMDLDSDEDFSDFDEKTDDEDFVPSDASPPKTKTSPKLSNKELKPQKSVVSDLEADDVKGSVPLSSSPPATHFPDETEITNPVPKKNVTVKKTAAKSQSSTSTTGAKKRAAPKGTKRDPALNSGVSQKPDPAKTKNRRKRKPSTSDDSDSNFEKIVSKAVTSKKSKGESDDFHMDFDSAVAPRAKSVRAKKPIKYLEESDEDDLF

[3] = system: P388 mouse leukemia cells; test: In vitro cytotoxicity: clonogenic survival in soft agar; assay type: cell-based; conditions: read-out: in vitro cytox IC50
Protocol: In Vitro Cytotoxicity This is measured by quantifying clonogenic survival in soft agar following a 1 hour transient exposure of P388 mouse leukemia cells to drug.

[4] = tested as an antitumor agent (literature); cited from earlier work
[5] = DNA precipitated equivalent to 50% of the maximum precipitated by m-AMSA
[6] = P388, 1 hour transient exposure, 50% reduction of clonogenic survival in soft agar
[7] = footnote j: first dose administered 4 days after tumor implantation
[8] = footnote k: bell-shaped dose response curve noted when determining the EC50, relative to 50% of m-AMSA maximum

| Compound | LTC (long term cures) [1] | % T/C (tumor growth inhibition) [1] [%] | MTD [2] [mg/kg] | EC50 (calf thymus DNA) [nM] | EC50 (HeLa cell topo II; [5]) [nM] | IC50 [3, 6] [nM] | % T/C (tumor growth inhibition) [1, 7] [%] | EC50 (HeLa cell topo II; [8]) [nM] | IC50 ([3]; P388, 1 h) [nM] | antitumor activity [4] |
| --- | --- | --- | --- | --- | --- | --- | --- | --- | --- | --- |
| CCN(CC)CCn1nc2c3c(c(CNC=O)ccc31)Sc1ccc(OC)cc1-2 [Ex 6] | 3/5 | 0 | 231 | 1900 | > 240000 | 55000 | – | – | – | – |
| CCN(CC)CCn1nc2c3c(c(CN)ccc31)Sc1ccc(OC)cc1-2 [Ex 9] | 3/4 | – | 240 | 130 | > 260000 | 13000 | 0 | – | – | – |
| CCN(CC)CCn1nc2c3c(c(CNS(C)(=O)=O)ccc31)Sc1ccccc1-2 [Ex 11, N-[[2-[2-(Diethylamino)ethyl]-2H-[1]-benzothiopyrano[4,3,2-cd]indazol-5-yl]methyl]methanesulfonamide] | 0/5 | 0 | 72 | 1800 | > 230000 | 500 | – | – | – | – |
| CCN(CC)CCn1nc2c3c(c(CNS(C)(=O)=O)ccc31)Sc1ccc(O)cc1-2 [Ex 15] | 0/5 | – | 31 | 2400 | – | 4.4 | 0 | 550 | – | – |
| CCN(CC)CCn1nc2c3c(c(CNC(=O)OC)ccc31)Sc1ccccc1-2 [Ex 13, Methyl N-[[2-[(2-diethylamino)ethyl]-2H-[1]-benzothiopyrano(4,3,2-cd)indazol-5-yl]methyl) carbamate] | 3/5 | 0 | 78 | 2600 | > 240000 | 500 | – | – | – | – |
| CCN(CC)CCNc1ccc(CN(C)S(C)(=O)=O)c2sc3ccccc3c(=O)c12 [WIN33377, reference compound] | 3/5 | 0 | 124 | 18000 | – | 301 | – | 3000 | – | – |
| CCN(CC)CCn1nc2c3c(c(CNS(C)(=O)=O)ccc31)Sc1ccc(OC)cc1-2 [Ex 12] | 3/5 | 0 | 208 | 1600 | > 210000 | 30000 | – | – | – | – |
| CCN(CC)CCn1nc2c3c(c(CNC=O)ccc31)Sc1ccccc1-2 [Ex 5] | 0/5 | 0 | 81 | 1500 | > 260000 | 330 | – | – | – | – |
| CCN(CC)CCn1nc2c3c(c(CNC(=O)OC)ccc31)Sc1ccc(OC)cc1-2 [Ex 14] | 4/4 | – | 170 | 790 | > 220000 | 45000 | 0 | – | – | – |
| COc1cc(NS(C)(=O)=O)ccc1Nc1c2ccccc2nc2ccccc12 [mAMSA, reference compound] | 0/5 | 0 | 48 | 11000 | – | – | – | – | 151 | – |
| CCN(CC)CCn1nc2c3c(c(CNC)ccc31)Sc1ccccc1-2 [Ex 10, N-methyl-2-[(2-(Diethylamino)ethyl]-2H-[1]-benzothiopyrano[4,3,2-cd]indazole-5-methanaminedihydrochloride hydrate] | 1/5 | 0 | 326 | 180 | > 220000 | 16000 | – | – | – | – |
| Cc1ccc2[nH]nc3c2c1Sc1ccccc1-3 [5-methyl-2H-[1]benzothiopyrano[4,3,2-cd]indazole] | – | – | – | – | – | – | – | – | – | inactive |
| CCN(CC)CCn1nc2c3c(c(CNC(=O)OC)ccc31)Sc1ccc(O)cc1-2 [Ex 16] | 0/5 | – | 18 | 1500 | – | 11 | 13 | 330 | – | – |
| CCN(CC)CCn1nc2c3c(c(CN)ccc31)Sc1ccccc1-2 [Ex 8] | 0/5 | – | 72 | 120 | > 250000 | 5800 | 25 | – | – | – |

Source: patent US5532263A, “Benzothiopyranoindazole antitumor agents” (priority 1995, dated 1996)
